Test results: PubChem BioAssay AID330 (DTP/NCI, 2004)
Where “and” joins values, the source holds several entries; their conditions need not be identical. Identical values can stand only once. Inconclusive results and toxic doses are left out.

System: P388 leukemia ip, CD2F1 mice, survival T/C
Experiment: NCI In Vivo Anticancer Drug Screen. Data for tumor model P388 Leukemia (intraperitoneal) in CD2F1 (CDF1) mice
Details: endpoint: median survival time, higher = longer survival
Method in brief: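 Mice carrying the transplanted tumor received test compound or vehicle. Survival was recorded in each group, and the value is the treated-group measurement divided by that of the vehicle-treated control group.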

[1] = dose: 50.0 mg/kg/injection, schedule: Q01DX009 (ip), vehicle: saline
[2] = dose: 100.0 mg/kg/injection, schedule: Q01DX009 (ip), vehicle: saline
[3] = dose: 200.0 mg/kg/injection, schedule: Q01DX009 (ip), vehicle: saline
[4] = dose: 60.0 mg/kg/injection, schedule: Q01DX005 (ip), vehicle: saline with Tween-80
[5] = dose: 120.0 mg/kg/injection, schedule: Q01DX005 (ip), vehicle: saline with Tween-80
[6] = dose: 240.0 mg/kg/injection, schedule: Q01DX005 (ip), vehicle: saline with Tween-80
[7] = dose: 25.0 mg/kg/injection, schedule: Q01DX009 (ip), vehicle: other
[8] = dose: 100.0 mg/kg/injection, schedule: Q01DX009 (ip), vehicle: saline with Tween-80
[9] = dose: 200.0 mg/kg/injection, schedule: Q01DX009 (ip), vehicle: saline with Tween-80
[10] = dose: 25.0 mg/kg/injection, schedule: Q01DX009 (ip), vehicle: saline with Tween-80
[11] = dose: 50.0 mg/kg/injection, schedule: Q01DX009 (ip), vehicle: saline with Tween-80

`CC(=O)OC1CCN(C)CC1CCl` (centres undefined) was tested, and the T/C (dose: 12.5 mg/kg/injection, schedule: Q01DX009 (ip), vehicle: saline) was 110 % of control, the T/C (dose: 25.0 mg/kg/injection, schedule: Q01DX009 (ip), vehicle: saline) was 105 % of control and the T/C [1] was 105 % of control and 114 % of control.
With `CCN(CC)C(=S)n1c(=S)nc(N(CC)CC)sc1=S` the T/C (dose: 6.25 mg/kg/injection, schedule: Q01DX005 (ip), vehicle: Klucel (hydroxypropylcellulose) (HPC)) was 109 % of control, the T/C (dose: 12.5 mg/kg/injection, schedule: Q01DX005 (ip), vehicle: Klucel (hydroxypropylcellulose) (HPC)) was 98 % of control and the T/C (dose: 25.0 mg/kg/injection, schedule: Q01DX005 (ip), vehicle: Klucel (hydroxypropylcellulose) (HPC)) was 108 % of control.
For `COc1ccc(C2=C(c3ccccc3)C(C)(C)Oc3ccc4ccccc4c32)cc1`, the T/C (dose: 50.0 mg/kg/injection, schedule: Q01DX005 (ip), vehicle: Klucel (hydroxypropylcellulose) (HPC)) was 95 % of control, the T/C (dose: 100.0 mg/kg/injection, schedule: Q01DX005 (ip), vehicle: Klucel (hydroxypropylcellulose) (HPC)) was 95 % of control and the T/C (dose: 200.0 mg/kg/injection, schedule: Q01DX005 (ip), vehicle: Klucel (hydroxypropylcellulose) (HPC)) was 104 % of control.
In the case of `COc1ccc(NC(=O)N(C)C)cc1OC`, the T/C (dose: 100.0 mg/kg/injection, schedule: Q04DX003 (ip), vehicle: saline) is reported as 101 % of control, the T/C (dose: 200.0 mg/kg/injection, schedule: Q04DX003 (ip), vehicle: saline) is reported as 107 % of control and the T/C (dose: 400.0 mg/kg/injection, schedule: Q04DX003 (ip), vehicle: saline) is reported as 105 % of control.
For `O=C(Nc1ccc(Cl)cc1C(F)(F)F)Oc1ccc(-c2ccccc2)cc1Br`, the T/C [1] was 95 % of control, the T/C [2] was 88 % of control and the T/C [3] was 97 % of control.
With `C(CCC1CO1)CC1CO1` (centres undefined) the T/C (dose: 100.0 mg/kg/injection, schedule: Q04DX002 (ip), vehicle: Klucel (hydroxypropylcellulose) (HPC)) was 122 % of control.
In the case of `CN1C(c2ccccc2)=C(C#N)C(=O)CC(c2ccc(Cl)cc2)N1C` (centres undefined), the T/C [4] is reported as 102 % of control, the T/C [5] is reported as 91 % of control and the T/C [6] is reported as 101 % of control.
With `Cc1ccccc1N=Nc1c(O)n(-c2ccccc2Cl)c(=S)n(-c2ccccc2)c1=O` the T/C (dose: 25.0 mg/kg/injection, schedule: Q01DX001 (ip), vehicle: Klucel (hydroxypropylcellulose) (HPC)) was 102 % of control, the T/C (dose: 50.0 mg/kg/injection, schedule: Q01DX001 (ip), vehicle: Klucel (hydroxypropylcellulose) (HPC)) was 104 % of control and the T/C (dose: 100.0 mg/kg/injection, schedule: Q01DX001 (ip), vehicle: Klucel (hydroxypropylcellulose) (HPC)) was 101 % of control.
In the case of `CC(C)CCCCCCCCCCCCC(=O)NC1C(C)OC(Nc2ncnc3nc[nH]c23)C(O)C1O` (centres undefined), the T/C (dose: 0.5 mg/kg/injection, schedule: Q01DX009 (ip), vehicle: other) is reported as 107 % of control, the T/C (dose: 1.0 mg/kg/injection, schedule: Q01DX009 (ip), vehicle: other) is reported as 109 % of control and the T/C (dose: 2.0 mg/kg/injection, schedule: Q01DX009 (ip), vehicle: other) is reported as 98 % of control. The T/C (dose: 4.0 mg/kg/injection, schedule: Q01DX009 (ip), vehicle: other) was 106 % of control, the T/C (dose: 6.25 mg/kg/injection, schedule: Q01DX009 (ip), vehicle: other) was 104 % of control and the T/C (dose: 8.0 mg/kg/injection, schedule: Q01DX009 (ip), vehicle: other) was 106 % of control. For the same molecule, the T/C (dose: 12.5 mg/kg/injection, schedule: Q01DX009 (ip), vehicle: other) was 91 % of control, the T/C [7] was 88 % of control and the T/C (dose: 50.0 mg/kg/injection, schedule: Q01DX009 (ip), vehicle: other) was 91 % of control.
For `O=C(COc1cc(Cl)c(Cl)cc1Cl)OCCOc1cc(Cl)c(Cl)cc1Cl`, the T/C (dose: 1.0 mg/kg/injection, schedule: Q01DX009 (ip), vehicle: saline with Tween-80) was 100 % of control, the T/C (dose: 2.0 mg/kg/injection, schedule: Q01DX009 (ip), vehicle: saline with Tween-80) was 100 % of control and the T/C (dose: 4.0 mg/kg/injection, schedule: Q01DX009 (ip), vehicle: saline with Tween-80) was 95 % of control.
`Cc1cc(SSc2cc(C)nc(N)n2)nc(N)n1` was tested, and the T/C (dose: 100.0 mg/kg/injection, schedule: Q01DX001 (ip), vehicle: saline with Tween-80) was 86 % of control and the T/C (dose: 200.0 mg/kg/injection, schedule: Q01DX001 (ip), vehicle: saline with Tween-80) was 86 % of control.
With `CS(=O)(=O)OC1C(COC(=O)c2ccccc2)OC(n2ccc(=O)[nH]c2=O)C1O` (centres undefined) the T/C (dose: 50.0 mg/kg/injection, schedule: Q01DX005 (ip), vehicle: saline) was 100 % of control, the T/C (dose: 100.0 mg/kg/injection, schedule: Q01DX005 (ip), vehicle: saline) was 101 % of control and the T/C (dose: 200.0 mg/kg/injection, schedule: Q01DX005 (ip), vehicle: saline) was 101 % of control.
For `CC1C=CC(C)c2c(-c3ccccc3)oc(-c3ccccc3)c21` (centres undefined), the T/C [8] was 95 % of control, the T/C [9] was 104 % of control and the T/C (dose: 400.0 mg/kg/injection, schedule: Q01DX009 (ip), vehicle: saline with Tween-80) was 108 % of control.
For `COc1ccc(N2CCN(/C=C3\Cc4c(F)cccc4C3=O)CC2)cc1`, the T/C (dose: 100.0 mg/kg/injection, schedule: Q04DX003 (ip), vehicle: Klucel (hydroxypropylcellulose) (HPC)) was 97 % of control, the T/C (dose: 200.0 mg/kg/injection, schedule: Q04DX003 (ip), vehicle: Klucel (hydroxypropylcellulose) (HPC)) was 103 % of control and the T/C (dose: 400.0 mg/kg/injection, schedule: Q04DX003 (ip), vehicle: Klucel (hydroxypropylcellulose) (HPC)) was 101 % of control.
For `C/C(=N\NC(=S)N1CCN(c2cnccn2)CC1)c1ccccn1`, the T/C (dose: 3.75 mg/kg/injection, schedule: Q01DX005 (ip), vehicle: saline with Tween-80) was 120 % of control and the T/C (dose: 7.5 mg/kg/injection, schedule: Q01DX005 (ip), vehicle: saline with Tween-80) was 120 % of control and 122 % of control.
In the case of `O=C1NCC(Br)C(=O)N1` (centres undefined), the T/C [7] is reported as 113 % of control, the T/C (dose: 25.0 mg/kg/injection, schedule: Q01DX009 (ip), vehicle: saline + Tween-80 + alcohol) is reported as 112 % of control and the T/C (dose: 50.0 mg/kg/injection, schedule: Q01DX009 (ip), vehicle: saline + Tween-80 + alcohol) is reported as 121 % of control. For the same molecule, the T/C (dose: 100.0 mg/kg/injection, schedule: Q01DX009 (ip), vehicle: saline + Tween-80 + alcohol) was 122 % of control.
`O=C1C=C2OCOC2=CC1=O` was tested, and the T/C (dose: 4.38 mg/kg/injection, schedule: Q01DX005 (ip), vehicle: Klucel (hydroxypropylcellulose) (HPC)) was 100 % of control, the T/C (dose: 8.75 mg/kg/injection, schedule: Q01DX005 (ip), vehicle: Klucel (hydroxypropylcellulose) (HPC)) was 99 % of control and the T/C (dose: 17.5 mg/kg/injection, schedule: Q01DX005 (ip), vehicle: Klucel (hydroxypropylcellulose) (HPC)) was 103 % of control and 104 % of control.
`Cc1c(Cl)cccc1NC(=O)/C(Cl)=C1/Sc2ccccc2NC1=O` was tested, and the T/C [4] was 96 % of control, the T/C [5] was 93 % of control and the T/C [6] was 91 % of control.
For `COc1cccc2c1C(=O)c1c(O)c3c(c(O)c1C2=O)CC(O)(C(N)=O)CC3OC1CC(N)C(O)C(C)O1` (centres undefined), the T/C (dose: 0.39 mg/kg/injection, schedule: Q01DX009 (ip), vehicle: water) was 101 % of control and the T/C (dose: 6.25 mg/kg/injection, schedule: Q01DX009 (ip), vehicle: water) was 151 % of control.
`N=c1c(C(N)=O)nc(/C=C/c2ccccc2)cn1O` was tested, and the T/C (dose: 12.5 mg/kg/injection, schedule: Q01DX009 (ip), vehicle: saline with Tween-80) was 90 % of control, the T/C [10] was 90 % of control and the T/C [11] was 96 % of control.
`COC1=C(N)C(=O)c2nc(-c3ccccc3N)ccc2C1=O` was tested, and the T/C [1] was 121 % of control and the T/C [2] was 120 % of control.
With `COc1ccc(/C(C)=N/OC(=O)c2c(-c3ccccc3Cl)noc2C)cc1CN1CCOCC1` the T/C [1] was 94 % of control, the T/C [2] was 97 % of control and the T/C [3] was 97 % of control.
`O=C1CN(Cc2ccc3c(c2)OCO3)NO1` was tested, and the T/C [10] was 111 % of control, the T/C [11] was 104 % of control and 108 % of control and the T/C [8] was 101 % of control. The T/C [9] was 119 % of control and 86 % of control.
In the case of `COC(=O)Nc1cn2ccsc2n1`, the T/C (dose: 50.0 mg/kg/injection, schedule: Q01DX005 (ip), vehicle: saline with Tween-80) is reported as 105 % of control, the T/C (dose: 100.0 mg/kg/injection, schedule: Q01DX005 (ip), vehicle: saline with Tween-80) is reported as 102 % of control and the T/C (dose: 200.0 mg/kg/injection, schedule: Q01DX005 (ip), vehicle: saline with Tween-80) is reported as 105 % of control.
For `O=[N+]([O-])c1nccn1CCCl`, the T/C (dose: 12.5 mg/kg/injection, schedule: Q01DX009 (ip), vehicle: distilled water + Tween-80) was 95 % of control, the T/C (dose: 25.0 mg/kg/injection, schedule: Q01DX009 (ip), vehicle: distilled water + Tween-80) was 113 % of control and the T/C (dose: 50.0 mg/kg/injection, schedule: Q01DX009 (ip), vehicle: distilled water + Tween-80) was 100 % of control.
With `CC1(O)CC2(O)C=CC3=C(C(=O)c4cccc(O)c4C3=O)C2(O)C(=O)C1O` (centres undefined) the T/C (dose: 0.75 mg/kg/injection, schedule: Q01DX005 (ip), vehicle: distilled water + Tween-80 + alcohol) was 107 % of control and the T/C (dose: 1.5 mg/kg/injection, schedule: Q01DX005 (ip), vehicle: distilled water + Tween-80 + alcohol) was 114 % of control.
